The molecules below were run against GCN2 (Homo sapiens, UniProt Q9P2K8) (assay: TR-FRET biochemical assay for inhibition of GCN2 (Example 106, for Example 1-4BB)). Details: Table 8.
GCN2, sequence (Q9P2K8 whole entry): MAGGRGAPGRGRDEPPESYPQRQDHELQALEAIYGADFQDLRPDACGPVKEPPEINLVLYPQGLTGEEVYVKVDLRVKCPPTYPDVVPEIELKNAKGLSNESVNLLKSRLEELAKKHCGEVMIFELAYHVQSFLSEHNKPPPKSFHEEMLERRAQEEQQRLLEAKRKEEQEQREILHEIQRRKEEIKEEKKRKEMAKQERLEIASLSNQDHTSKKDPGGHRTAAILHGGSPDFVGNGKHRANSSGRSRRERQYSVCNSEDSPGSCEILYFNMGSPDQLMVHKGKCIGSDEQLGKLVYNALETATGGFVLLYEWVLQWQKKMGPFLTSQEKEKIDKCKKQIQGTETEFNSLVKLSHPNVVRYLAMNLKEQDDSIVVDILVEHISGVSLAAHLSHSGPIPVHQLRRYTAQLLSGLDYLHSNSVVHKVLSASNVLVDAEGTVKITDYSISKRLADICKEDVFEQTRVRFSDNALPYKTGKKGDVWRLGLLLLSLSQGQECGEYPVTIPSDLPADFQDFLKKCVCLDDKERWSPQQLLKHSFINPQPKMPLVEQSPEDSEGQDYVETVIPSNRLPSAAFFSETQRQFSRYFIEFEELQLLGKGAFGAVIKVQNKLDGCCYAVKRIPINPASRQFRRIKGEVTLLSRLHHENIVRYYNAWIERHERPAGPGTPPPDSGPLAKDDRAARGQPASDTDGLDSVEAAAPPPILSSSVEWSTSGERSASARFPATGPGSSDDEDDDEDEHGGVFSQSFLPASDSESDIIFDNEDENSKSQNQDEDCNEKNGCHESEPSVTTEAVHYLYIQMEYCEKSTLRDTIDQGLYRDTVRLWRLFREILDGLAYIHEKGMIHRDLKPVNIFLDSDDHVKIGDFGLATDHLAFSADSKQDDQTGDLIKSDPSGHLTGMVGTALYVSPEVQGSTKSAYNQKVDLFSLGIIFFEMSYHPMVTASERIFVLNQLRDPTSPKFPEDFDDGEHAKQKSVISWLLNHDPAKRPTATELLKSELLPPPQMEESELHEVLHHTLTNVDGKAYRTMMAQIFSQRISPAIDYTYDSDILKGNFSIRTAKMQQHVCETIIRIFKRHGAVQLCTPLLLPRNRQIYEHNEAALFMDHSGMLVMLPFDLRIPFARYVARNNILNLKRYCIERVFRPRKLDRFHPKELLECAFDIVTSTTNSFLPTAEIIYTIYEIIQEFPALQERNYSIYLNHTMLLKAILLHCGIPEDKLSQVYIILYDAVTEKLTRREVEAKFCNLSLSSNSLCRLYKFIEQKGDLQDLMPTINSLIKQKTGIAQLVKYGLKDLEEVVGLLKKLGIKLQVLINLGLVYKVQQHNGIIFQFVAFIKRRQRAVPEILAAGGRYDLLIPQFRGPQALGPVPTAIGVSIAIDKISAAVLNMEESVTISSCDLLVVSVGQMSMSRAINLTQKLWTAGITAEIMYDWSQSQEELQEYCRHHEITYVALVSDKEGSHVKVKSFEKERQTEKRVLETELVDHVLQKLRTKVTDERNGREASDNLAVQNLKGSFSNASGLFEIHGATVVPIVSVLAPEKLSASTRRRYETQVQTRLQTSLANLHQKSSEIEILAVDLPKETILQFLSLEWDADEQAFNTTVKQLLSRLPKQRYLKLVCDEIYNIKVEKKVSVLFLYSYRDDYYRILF

| IC50 | SMILES |
| --- | --- |
| 500 to 2500 nM | O=S(=O)(Nc1ccc(F)c(-c2ccc3c(-c4ncc[nH]4)n[nH]c3c2F)c1F)c1cccnc1CO [Example 2Q, N-(2,4-difluoro-3-(7-fluoro-3-(1H-imidazol-2-yl)-1H-indazol-6-yl)phenyl)-2-(hydroxyl-methyl)pyridine-3-sulfonamide] |
| < 500 nM | O=S(=O)(Nc1ccc(F)c(-c2ccc3c(-c4ncc[nH]4)n[nH]c3c2F)c1F)c1cc(Cl)cc(CO)c1Cl [Example 2AF, 2,5-dichloro-N-(2,4-difluoro-3-(7-fluoro-3-(1H-imidazol-2-yl)-1H-indazol-6-yl)-phenyl)-3-(hydroxyl-methyl)benzenesulfonamide] |
| < 500 nM | COc1ncc(Cl)cc1S(=O)(=O)Nc1ccc(F)c(-c2ccc3c(C(=O)NCCCN(C)C)n[nH]c3c2F)c1F [Example 2CG, 6-(3-((5-chloro-2-methoxy-pyridine)-3-sulfonamido)-2,6-difluorophenyl)-N-(3-(di-methylamino)propyl)-7-fluoro-1H-indazole-3-carboxamide] |
| < 500 nM | O=S(=O)(Nc1ccc(F)c(-c2ccc3c(-c4ncc[nH]4)n[nH]c3c2F)c1F)c1cc(Cl)ccc1Cl [Example 2AX, 2,5-dichloro-N-(2,4-difluoro-3-(7-fluoro-3-(1H-imidazol-2-yl)-1H-indazol-6-yl)phenyl)-benzenesulfonamide] |
| < 500 nM | Cc1ccccc1S(=O)(=O)Nc1ccc(F)c(-c2ccc3c(-c4ncc[nH]4)n[nH]c3c2F)c1F [Example 2BR, N-(2,4-difluoro-3-(7-fluoro-3-(1H-imidazol-2-yl)-1H-indazol-6-yl)phenyl)-2-methylbenzenesulfonamide] |
| 500 to 2500 nM | COc1ncc(Cl)cc1S(=O)(=O)Nc1ccc(F)c(-c2ccc3c(-c4ncc[nH]4)n[nH]c3c2)n1 [Example 2CA] |
| < 500 nM | COC(=O)c1n[nH]c2c(F)c(-c3c(F)ccc(NS(=O)(=O)c4cc(Cl)cnc4OC)c3F)ccc12 [Example 4, Methyl 6-(3-((5-Chloro-2-methoxypyridine)-3-sulfonamido)-2,6-difluorophenyl)-7-fluoro-1H-indazole-3-carboxylate] |
| 2500 to 10000 nM | Cn1ccnc1S(=O)(=O)Nc1ccc(F)c(-c2ccc3c(-c4ncc[nH]4)n[nH]c3c2F)c1F [Example 2S, N-(2,4-difluoro-3-(7-fluoro-3-(1H-imidazol-2-yl)-1H-indazol-6-yl)phenyl)-1-methyl-1H-imidazole-2-sulfonamide] |
| 500 to 2500 nM | COc1ncc(Cl)cc1S(=O)(=O)Nc1ccc(F)c(-c2ccc3c(C(=O)N(C)C)n[nH]c3c2F)c1F [Example 2AS, 6-(3-((5-chloro-2-methoxy-pyridine)-3-sulfonamido)-2,6-difluorophenyl)-7-fluoro-N,N-dimethyl-1H-indazole-3-carboxamide] |
| < 500 nM | Cc1ncccc1S(=O)(=O)Nc1ccc(F)c(-c2ccc3c(-c4ncc[nH]4)n[nH]c3c2F)c1F [Example 2, N-(2,4-difluoro-3-(7-fluoro-3-(1H-imidazol-2-yl)-1H-indazol-6-yl)phenyl)-2-methylpyridine-3-sulfonamide] |
| < 500 nM | COc1ncc(Cl)cc1S(=O)(=O)Nc1ccc(F)c(-c2ccc3c(-c4ncc[nH]4)n[nH]c3c2F)c1Cl [Example 2T, 5-chloro-N-(2-chloro-4-fluoro-3-(7-fluoro-3-(1H-imidazol-2-yl)-1H-indazol-6-yl)phenyl)-2-methoxypyridine-3-sulfonamide] |

Same assay, conditions: Table 9

| IC50 | SMILES |
| --- | --- |
| < 500 nM | COc1ncc(Cl)cc1S(=O)(=O)Nc1ccc(F)c(-c2ccc3c(C(=O)Nc4cn[nH]c4)n[nH]c3c2F)c1F [Example 3CQ, 6-(3-((5-chloro-2-methoxy-pyridine)-3-sulfonamido)-2,6-difluorophenyl)-7-fluoro-N-(1H-pyrazol-4-yl)-1H-indazole-3-carboxamide] |
| < 500 nM | Cc1ncc(F)cc1S(=O)(=O)Nc1cc(F)cc(-c2ccc3c(C(N)=O)n[nH]c3c2F)c1F [Example 3CG, 6-(2,5-difluoro-3-((5-fluoro-2-methylpyridine)-3-sulfon-amido)phenyl)-7-fluoro-1H-indazole-3-carboxamide] |
| < 500 nM | NC(=O)c1n[nH]c2c(F)c(-c3c(F)ccc(NS(=O)(=O)c4cc(F)cc5c4CCC5=O)c3F)ccc12 [Example 4S] |
| < 500 nM | COc1ncc(F)cc1S(=O)(=O)Nc1ccc(F)c(-c2ccc3c(C(=O)NCCCNC(C)=O)n[nH]c3c2F)c1F [Example 3AV, N-(3-acetamidopropyl)-6-(2,6-difluoro-3-((5-fluoro-2-methoxypyridine)-3-sulfon-amido)phenyl)-7-fluoro-1H-indazole-3-carboxamide] |
| < 500 nM | O=C(Nc1cnn(CCO)c1)c1n[nH]c2c(F)c(-c3c(F)ccc(NS(=O)(=O)c4cc(F)cc5c4CCC5O)c3F)ccc12 (stereo not drawn) [Example 4AJ] |
| > 10000 nM | COc1ncc(F)cc1S(=O)(=O)Nc1ncc(F)c(-c2ccc3c(C(N)=O)n[nH]c3c2)c1F [Example 3P, 6-(3,5-difluoro-2-((5-fluoro-2-methoxypyridine)-3-sulfonamido)pyridin-4-yl)-1H-indazole-3-carboxamide] |
| < 500 nM | COc1ncc(F)cc1S(=O)(=O)Nc1ccc(C#N)c(-c2ccc3c(C(=O)NCCCO)n[nH]c3c2F)c1F [Example 3CA, 6-(6-cyano-2-fluoro-3-((5-fluoro-2-methoxypyridine)-3-sulfonamido)phenyl)-7-fluoro-N-(3-hydroxypropyl)-1H-indazole-3-carboxamide] |
| < 500 nM | COc1ncc(F)cc1S(=O)(=O)Nc1cccc(-c2ccc3c(C(=O)NCC[C@H](O)CO)n[nH]c3c2F)c1F [Example 3BG, 6-(2-fluoro-3-((5-fluoro-2-methoxypyridine)-3-sulfonamido)phenyl)-N-((S)-3,4-dihydroxybutyl)-7-fluoro-1H-indazole-3-carboxamide] |
| < 500 nM | COc1ncccc1S(=O)(=O)Nc1cccc(-c2ccc3c(-c4ncc[nH]4)n[nH]c3c2F)c1F [Example 3W, N-(2-fluoro-3-(7-fluoro-3-(1H-imidazol-2-yl)-1H-indazol-6-yl)phenyl)-2-methoxypyridine-3-sulfonamide] |
| < 500 nM | COc1ncc(Cl)cc1S(=O)(=O)Nc1ccc(F)c(-c2ccc3c(C(=O)NC[C@@H]4CCCN4C)n[nH]c3c2F)c1F [Example 3E, 6-(3-((5-chloro-2-methoxy-pyridine)-3-sulfonamido)-2,6-difluorophenyl)-7-fluoro-N-(((S)-1-methylpyrrolidin-2-yl)methyl)-1H-indazole-3-carboxamide] |
| < 500 nM | COc1ncc(C#N)cc1S(=O)(=O)Nc1ccc(F)c(-c2ccc3c(C(N)=O)n[nH]c3c2F)c1F [Example 4D] |
| < 500 nM | COc1ncc(C#N)cc1S(=O)(=O)Nc1cc(F)cc(-c2ccc3c(-c4ncc[nH]4)n[nH]c3c2F)c1F [Example 3BV, 5-cyano-N-(2,5-difluoro-3-(7-fluoro-3-(1H-imidazol-2-yl)-1H-indazol-6-yl)phenyl)-2-methoxypyridine-3-sulfonamide] |
| < 500 nM | COc1ncc(F)cc1S(=O)(=O)Nc1ccc(F)c(-c2ccc3c(C(=O)Nc4cnoc4)n[nH]c3c2F)c1F [Example 3BN, 6-(2,6-difluoro-3-((5-fluoro-2-methoxypyridine)-3-sulfonamido)phenyl)-7-fluoro-N-(isoxazol-4-yl)-1H-indazole-3-carboxamide] |
| < 500 nM | O=S(=O)(Nc1ccc(F)c(-c2ccc3c(-c4ncc[nH]4)n[nH]c3c2F)c1F)c1cc(F)cc(CO)c1Cl [Example 3CH, 2-chloro-N-(2,4-difluoro-3-(7-fluoro-3-(1H-imidazol-2-yl)-1H-indazol-6-yl)phenyl)-5-fluoro-3-(hydroxymethyl)-benzenesulfonamide] |
| < 500 nM | Cc1ncc(F)cc1S(=O)(=O)Nc1ncc(F)c(-c2ccc3c(-c4ncc[nH]4)n[nH]c3c2F)c1F [Example 3F, N-(3,5-difluoro-4-(7-fluoro-3-(1H-imidazol-2-yl)-1H-indazol-6-yl)pyridin-2-yl)-5-fluoro-2-methylpyridine-3-sulfonamide] |
| 2500 to 10000 nM | COc1ncc(Cl)cc1S(=O)(=O)Nc1ccc(F)c(-c2ccc3c(C(=O)NC4COC4)n[nH]c3c2F)c1F [Example 3B, 6-(3-((5-chloro-2-methoxy-pyridine)-3-sulfonamido)-2,6-difluorophenyl)-7-fluoro-N-(oxetan-3-yl)-1H-indazole-3-carboxamide] |
| < 500 nM | COc1ncc(F)cc1S(=O)(=O)Nc1cc(F)cc(-c2ccc3c(C(N)=O)n[nH]c3c2F)c1F [Example 3AQ, 6-(2,5-difluoro-3-((5-fluoro-2-methoxypyridine)-3-sulfon-amido)phenyl)-7-fluoro-1H-indazole-3-carboxamide] |

Continued, molecule first:

| SMILES | IC50 |
| --- | --- |
| Cc1ncc(F)cc1S(=O)(=O)Nc1cc(F)cc(-c2ccc3c(-c4ncc[nH]4)n[nH]c3c2F)c1F [Example 27, N-(2,5-Difluoro-3-(7-fluoro-3-(1H-imidazol-2-yl)-1H-indazol-6-yl)phenyl)-5-fluoro-2-methylpyridine-3-sulfonamide] | < 500 nM |
| COc1ncc(F)cc1S(=O)(=O)Nc1cccc(-c2ccc3c(-c4nc(CO)c[nH]4)n[nH]c3c2F)c1F [Example 13, 5-Fluoro-N-(2-fluoro-3-(7-fluoro-3-(4-(hydroxymethyl)-1H-imidazol-2-yl)-1H-indazol-6-yl)phenyl)-2-methoxypyridine-3-sulfonamide] | < 500 nM |
| COc1ncc(F)cc1S(=O)(=O)Nc1ncc(F)c(-c2ccc3c(-c4ncc[nH]4)n[nH]c3c2F)c1F [Example 28, N-(3,5-Difluoro-4-(7-fluoro-3-(1H-imidazol-2-yl)-1H-indazol-6-yl)pyridin-2-yl)-5-fluoro-2-methoxypyridine-3-sulfonamide] | < 500 nM |
| COc1ncc(F)cc1S(=O)(=O)Nc1ccc(F)c(-c2ccc3c(-c4nc(C(N)=O)c[nH]4)n[nH]c3c2F)c1F [Example 20, 2-(6-(2,6-Difluoro-3-((5-fluoro-2-methoxypyridine)-3-sulfonamido)phenyl)-7-fluoro-1H-indazol-3-yl)-1H-imidazole-4-carboxamide] | < 500 nM |
| COc1ncc(F)cc1S(=O)(=O)Nc1ccc(F)c(-c2ccc3c(-c4nc(Cl)c[nH]4)n[nH]c3c2F)c1F [Example 17, N-(3-(3-(4-Chloro-1H-imidazol-2-yl)-7-fluoro-1H-indazol-6-yl)-2,4-difluorophenyl)-5-fluoro-2-methoxypyridine-3-sulfonamide] | < 500 nM |
